Where “and” joins values, the source holds several entries; their conditions need not be identical. Identical values can stand only once.
Key:
[1] = Crystal; DTA
[2] = Molar enthalpy of transition or fusion; settings: Crystal; DSC
[3] = molar heat capacity at constant pressure; settings: 101.33 kPa, Large sample (1 g) DSC

OC1CCC1 [cyclobutanol]
Settings | Molar enthalpy of transition or fusion [kJ/mol] | Normal melting temperature [°C]
[1] | – | -45.61
[2] | 7.91 | –

[3], Liquid
Settings | molar heat capacity at constant pressure
258.09 K | 132.4 J/K/mol and 132.7 J/K/mol
263.2 K | 134.8 J/K/mol and 134.7 J/K/mol
268.3 K | 137 J/K/mol and 137.2 J/K/mol
273.41 K | 139.4 J/K/mol
278.51 K | 141.8 J/K/mol
283.62 K | 144.6 J/K/mol and 144.4 J/K/mol
288.72 K | 147.4 J/K/mol and 147.3 J/K/mol
293.83 K | 150.5 J/K/mol and 150.2 J/K/mol
298.93 K | 153.7 J/K/mol and 153.8 J/K/mol
304.04 K | 157 J/K/mol and 157.1 J/K/mol
309.14 K | 160.5 J/K/mol
314.25 K | 164.1 J/K/mol and 164 J/K/mol
319.35 K | 168 J/K/mol and 167.9 J/K/mol
324.46 K | 171.9 J/K/mol and 171.6 J/K/mol
329.57 K | 175.4 J/K/mol
334.67 K | 179.4 J/K/mol
339.77 K | 183.6 J/K/mol and 183.1 J/K/mol
344.88 K | 187.5 J/K/mol and 187 J/K/mol
349.98 K | 191.6 J/K/mol
355.09 K | 195.6 J/K/mol

OC1CCCCCC1 [cycloheptanol]
[3]
Settings | molar heat capacity at constant pressure
260.59 K, Crystal | 195.3 J/K/mol
260.73 K, Crystal | 195.4 J/K/mol
262 K, Crystal | 196.4 J/K/mol and 196.5 J/K/mol
264 K, Crystal | 198 J/K/mol and 198.1 J/K/mol
266 K, Crystal | 199.8 J/K/mol
268 K, Crystal | 201.8 J/K/mol and 201.7 J/K/mol
270 K, Crystal | 204 J/K/mol
271.34 K, Crystal | 205.2 J/K/mol
271.43 K, Crystal | 205.4 J/K/mol
286.01 K, Liquid | 236.1 J/K/mol
286.13 K, Liquid | 236.3 J/K/mol
290 K, Liquid | 240.6 J/K/mol
295 K, Liquid | 246.5 J/K/mol
300 K, Liquid | 252.3 J/K/mol
305 K, Liquid | 258.1 J/K/mol and 258.2 J/K/mol
310 K, Liquid | 263.8 J/K/mol
315 K, Liquid | 269.4 J/K/mol and 269.5 J/K/mol
320 K, Liquid | 274.8 J/K/mol and 274.9 J/K/mol
325 K, Liquid | 280.3 J/K/mol and 280.2 J/K/mol
330 K, Liquid | 285.3 J/K/mol and 285.2 J/K/mol
335 K, Liquid | 289.9 J/K/mol and 290 J/K/mol
340 K, Liquid | 294.4 J/K/mol
345 K, Liquid | 299.2 J/K/mol
350 K, Liquid | 303.6 J/K/mol
354.82 K, Liquid | 307.6 J/K/mol
355 K, Liquid | 307.7 J/K/mol
357.82 K, Liquid | 309.7 J/K/mol

OC1CCCCC1 [cyclohexanol]
[3]
Settings | molar heat capacity at constant pressure
261.42 K, Crystal | 162.6 J/K/mol
261.48 K, Crystal | 162.8 J/K/mol
264 K, Crystal | 164.5 J/K/mol and 164.7 J/K/mol
267 K, Crystal | 166.8 J/K/mol and 167 J/K/mol
270 K, Crystal | 169.1 J/K/mol and 169.4 J/K/mol
273 K, Crystal | 171.7 J/K/mol and 172 J/K/mol
276 K, Crystal | 174.5 J/K/mol and 174.9 J/K/mol
279 K, Crystal | 177.4 J/K/mol and 177.9 J/K/mol
282 K, Crystal | 180.8 J/K/mol and 181.4 J/K/mol
284.5 K, Crystal | 184.9 J/K/mol
284.95 K, Crystal | 184.8 J/K/mol
305.05 K, Liquid | 218.3 J/K/mol
305.18 K, Liquid | 218.6 J/K/mol
310 K, Liquid | 223.8 J/K/mol and 224 J/K/mol
315 K, Liquid | 229.6 J/K/mol and 229.7 J/K/mol
320 K, Liquid | 235.5 J/K/mol and 235.3 J/K/mol
325 K, Liquid | 241.3 J/K/mol and 241.1 J/K/mol
330 K, Liquid | 246.7 J/K/mol and 246.8 J/K/mol
335 K, Liquid | 252 J/K/mol and 252.2 J/K/mol
340 K, Liquid | 257.4 J/K/mol and 257.6 J/K/mol
345 K, Liquid | 262.8 J/K/mol and 263 J/K/mol
350 K, Liquid | 268 J/K/mol
355 K, Liquid | 272.3 J/K/mol and 272.5 J/K/mol
357.82 K, Liquid | 274.7 J/K/mol
357.94 K, Liquid | 274.7 J/K/mol

OC1CCCC1 [cyclopentanol]
[3], Liquid
Settings | molar heat capacity at constant pressure
265.06 K | 157.6 J/K/mol
270 K | 160.7 J/K/mol
275 K | 164.2 J/K/mol
280 K | 167.8 J/K/mol and 167.9 J/K/mol
285 K | 171.6 J/K/mol and 171.7 J/K/mol
290 K | 175.7 J/K/mol and 175.9 J/K/mol
295 K | 180 J/K/mol and 180.1 J/K/mol
300 K | 184.3 J/K/mol and 184.4 J/K/mol
305 K | 188.6 J/K/mol and 188.7 J/K/mol
310 K | 193 J/K/mol and 193.1 J/K/mol
315 K | 197.4 J/K/mol and 197.6 J/K/mol
320 K | 201.8 J/K/mol and 202 J/K/mol
325 K | 206.2 J/K/mol and 206.4 J/K/mol
330 K | 210.5 J/K/mol and 210.7 J/K/mol
335 K | 215 J/K/mol and 215.1 J/K/mol
340 K | 219.5 J/K/mol
345 K | 223.8 J/K/mol and 223.7 J/K/mol
350 K | 228.1 J/K/mol and 228 J/K/mol
354.91 K | 232 J/K/mol
355 K | 232 J/K/mol
357.78 K | 234.1 J/K/mol
